These results are taken from PubChem BioAssay (NCI).

Holding throughout (test): NCI tumour cell line growth inhibition, 48 h
Experiment [1] deals with A549 NSCLC.
In experiment [2] the test system is HCC-2998 colon.
Experiment [3] has as its system NCI-H23 lung.
Experiment [4] has as its system OVCAR-5 ovarian.
Experiment [5] deals with OVCAR-8 ovarian.
Experiment [6] deals with RPMI-8226 leukemia.
Experiment [7] has as its system SN12C renal.
The subject of experiment [8] is TK-10 renal.
For experiment [9], the system named is UACC-62 melanoma.
Experiment [10] concerns SR leukemia.

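A five-concentration, 48-hour dose response in 96-well plates underlies each endpoint, interpolated linearly between surrounding concentrations. GI50: concentration for 50% inhibition of growth. The concentration for full growth arrest is given as TGI.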

`O=C(O)Cc1[nH]cnc1C(=O)O`: the TGI in experiment [1], in experiment [2], in [3], in experiment [4], in [5] and in [6] was > 100 µM in each case. Further, the TGI in experiment [7], in experiment [8] and in [9] was > 100 µM throughout.

Turning to `N#CC1=C(N)Nc2nc3ccccc3n2C1c1ccccc1` (centres undefined), the TGI was > 100 µM in experiment [1]; > 100 µM in experiment [3]; > 100 µM in experiment [4]; > 100 µM in [5]; 31 µM in experiment [6]; > 100 µM in experiment [7]. Also, the TGI in experiment [10] and in experiment [9] was > 100 µM throughout.

As for `CCOn1cc(C2=C(c3c[nH]c4ccccc34)C(=O)NC2=O)c2ccccc21`, the GI50 in [1] was < 0.0284 µM; in [2], < 0.01 µM; in experiment [3] it was < 0.028 µM; in experiment [4], 0.398 µM; in experiment [5] it was 0.0935 µM; in [7] it was 0.765 µM. In addition, the GI50 is 0.0343 µM in experiment [10], 0.0322 µM in [8] and < 0.01 µM in [9]. The TGI is 22.7 µM in [1]; < 0.01 µM in experiment [2]; 0.47 µM in experiment [3]; 17.2 µM in [4]; 20.3 µM in experiment [5]; 5.28 µM in experiment [6]. For the same molecule, the TGI in experiment [7] was 14.8 µM; in experiment [10], 29.4 µM; in experiment [8], 0.198 µM; in [9], 20.3 µM.

Turning to `CC1(C)N=C(N)N=C(N)N1c1cccc(OCc2cccc([N+](=O)[O-])c2)c1`, the TGI in experiment [1], in [3], in experiment [4], in [5], in [6] and in [7] was > 100 µM in each case. The TGI was > 81.8 µM in experiment [8] and > 100 µM in [9].

Regarding `COC(=O)c1nc2c3c(cccc3c1C(=O)OC)Nc1ccccc1-2`, the TGI in [1], in experiment [2], in experiment [3], in experiment [4], in [6] and in experiment [7] was > 100 µM in each case. Besides, the TGI in [10] was > 100 µM; in experiment [8] it was > 100 µM; in [9], 55.7 µM.

Take `O=C1OC2(c3ccc(O)cc3Oc3cc(O)ccc32)c2c1c(-c1ccccc1)c(-c1ccccc1)c(-c1ccccc1)c2-c1ccccc1`: the TGI in experiment [1] is > 100 µM; in experiment [2], 30 µM; in [4], 49.3 µM; in experiment [5] it was 45.2 µM; in experiment [6], 70.2 µM; in experiment [7], 60.3 µM. Also, the TGI in [10] was 46.1 µM; in experiment [8] it was 59.6 µM; in [9], 32.9 µM.

For `CSc1sc(=S)sc1SC`, the TGI in experiment [1], in experiment [2], in [3], in experiment [4], in experiment [5] and in experiment [6] was > 100 µM each time. Besides, the TGI in [7] and in [9] was > 100 µM each time.

On to `C/C(=C\COP(=O)(O)OP(=O)(O)O)CC/C=C(\C)CNc1ccc([N+](=O)[O-])cc1`, for which the TGI in experiment [1], in [3], in experiment [4], in [5], in experiment [6] and in [7] was > 100 µM each time. The TGI in experiment [10], in experiment [8] and in [9] was > 100 µM each time.

Regarding `C#C[C@@]1(O)[C@@H](CO)O[C@@H](n2cc(F)c3c(N)ncnc32)[C@@H]1O`, the GI50 in experiment [1] is 0.377 µM; in experiment [2], 0.6 µM; in experiment [3], 0.398 µM; in experiment [4], 1.78 µM; in experiment [5], 0.256 µM; in experiment [6], 0.221 µM. Also, the GI50 is 0.302 µM in experiment [7], 0.185 µM in [10], 0.736 µM in experiment [8] and 0.331 µM in [9]. In addition, the TGI was 2.64 µM in experiment [1]; 2.82 µM in [2]; 6.85 µM in experiment [3]; > 100 µM in experiment [4]; 3.69 µM in experiment [5]; 1.98 µM in [6]. The TGI was 4.74 µM in experiment [7], > 100 µM in [10], 6.56 µM in experiment [8] and 1.47 µM in [9].

As to `NC(=O)c1cc(C2OC(CO)C(O)C2O)nn1-c1ccc([N+](=O)[O-])cc1` (centres undefined), the TGI in [1], in experiment [2], in experiment [3], in experiment [4], in [5] and in experiment [6] was > 100 µM each time. The TGI in experiment [7], in [8] and in experiment [9] was > 100 µM each time.

For the molecule `C[C@H](CCC1=NCCN1)[C@H]1CC[C@H]2[C@@H]3CC[C@@H]4C[C@H](O)CC[C@]4(C)[C@H]3CC[C@]12C`, the TGI in experiment [1] was 22.4 µM; in [2], 24.6 µM; in [3] it was 35 µM; in [4] it was 34.7 µM; in [5], 37.2 µM; in [6], 13.4 µM. In addition, the TGI in [7] was 37.3 µM; in [10], > 20 µM; in experiment [8], 23.2 µM; in experiment [9], 4.26 µM.

On to `O=C(O)C(Br)Cc1ccc2c(c1)OCO2` (centres undefined), for which the TGI in experiment [1], in experiment [2], in experiment [3], in experiment [4], in experiment [6] and in experiment [7] was > 100 µM throughout. The TGI in experiment [10] and in experiment [9] was > 100 µM in each case.

For the molecule `COc1ccc(/C(Cl)=C(\C=O)c2ccc(Cl)c(Cl)c2)cc1OC`, the TGI in experiment [5] came out at 57.7 µM; in [6], 5.5 µM; in experiment [7] it was 18.7 µM; in [8], 51.4 µM; in experiment [9], 24.2 µM.

Consider `CCCCCCCCCCCCCCCCOCCCOP(=O)(O)C1CCCN(O)C1=O` (centres undefined), for which the GI50 in [1] was 3.56 µM; in [2], 1.11 µM; in experiment [3], 4.19 µM; in experiment [4] it was 1.63 µM; in experiment [5], 3.29 µM; in experiment [6], 0.936 µM. The GI50 was 1.53 µM in experiment [7], 0.738 µM in experiment [8] and 1.29 µM in [9]. The TGI was found to be 14.4 µM in [1]; 14.6 µM in experiment [2]; 20.5 µM in [3]; 18.6 µM in [4]; 27.8 µM in [5]; 29.4 µM in [6]. In addition, the TGI in [7] was found to be 12.8 µM; in experiment [8], 23.4 µM; in experiment [9], 7.18 µM.

`COc1ccc(/C=C/[N+](=O)[O-])cc1`: the TGI is 2.73 µM in [2]; 59.9 µM in [3]; 50.8 µM in experiment [4]; 5.9 µM in experiment [5]; 56 µM in experiment [7]; 5.48 µM in experiment [10]. Besides, the TGI in experiment [8] worked out at 27 µM; in experiment [9], 39.7 µM.

As for `O=C1c2ccccc2C(=O)c2c(O)c(O)cc(O)c21`, the TGI in [1] was > 100 µM; in experiment [2], 85.6 µM; in [3], > 100 µM; in experiment [4], > 100 µM; in experiment [5], > 100 µM; in experiment [6], 70.1 µM. For the same molecule, the TGI was > 100 µM in experiment [7], > 100 µM in [8] and 64.8 µM in [9].

In the case of `COc1cc2c3c(c4cc(OC)c(OC)cc4c2cc1OC)[C@H](O)[C@@H]1CCCN1C3`, the TGI in experiment [1] was 2.56 µM; in experiment [3], 1.93 µM; in experiment [4], 0.732 µM; in experiment [6] it was 0.44 µM; in [7], 1.42 µM; in [10], 2.67 µM. Also, the TGI in experiment [8] stood at 1.55 µM; in [9], 0.395 µM.

Regarding `Nc1nncs1`, the TGI in experiment [1] was 4980 µM; in experiment [2], > 5000 µM; in [3], > 4730 µM; in experiment [4], > 4450 µM; in experiment [5], > 5000 µM; in experiment [6] it was > 5000 µM. The TGI in experiment [7] is > 5000 µM; in experiment [10], > 5000 µM; in experiment [8], > 5000 µM; in experiment [9], > 3890 µM.

With `COc1ccc2c(c1)/C(=C\c1cccc(/C=C3/C(=O)Nc4ccc(OC)cc43)n1)C(=O)N2`, the TGI in experiment [1] was > 100 µM; in experiment [2], 3.58 µM; in experiment [3] it was 2.6 µM; in [4], 3.74 µM; in experiment [5] it was > 25.4 µM; in [7] it was 4.91 µM. Further, the figures for the TGI in experiment [10], in experiment [8] and in experiment [9] were 0.452 µM, 6.57 µM and 2.28 µM, respectively. Also, the GI50 was 0.209 µM in experiment [10] and 0.703 µM in experiment [9].

Regarding `O=C(O)CNCc1c2ccccc2[n+]([O-])c2ccccc12`, the TGI in [1], in experiment [2], in [3], in [4], in experiment [5] and in experiment [6] was > 100 µM each time. Also, the TGI in experiment [7], in [8] and in experiment [9] was > 100 µM each time.
